Measurements: patent US20240090503A1, “FUNGICIDAL OXADIAZOLES AND THEIR MIXTURES” (FMC CORPORATION, priority 2020, published 2024)
Marks after values point to notes of the source that are not given here.

Key:
Type in all cases: in vivo
[1] = test system: Zymoseptoria tritici (the causal agent of wheat leaf blotch); assay: Test B: preventive spray on wheat seedlings, wheat leaf blotch, visual disease rating; settings: wheat seedlings
Source text: General protocol for preparing test suspensions for Tests A-D: the test compounds were first dissolved in acetone in an amount equal to 3% of the final volume and then suspended at the desired concentration (in ppm) in acetone and purified water (50/50 mix by volume) containing 250 ppm of the surfactant PEG400 (polyhydric alcohol esters). The resulting test suspensions were then used in Tests A-D.
The test suspension was sprayed to the point of run-off on wheat seedlings. The following day the seedlings were inoculated with a spore suspension of Zymoseptoria tritici (the causal agent of wheat leaf blotch) and incubated in a saturated atmosphere at 24° C. for 48 h, and then moved to a growth chamber at 20° C. for 17 days, after which time visual disease ratings were made.
The test results for Tests A-C presented in Table A below for compounds of Formula 1 illustrate the fungicidal activity of component (a) contributing to the plant disease control utility of compositions comprising component (a) in combination with component (b) according to the present invention. In the Table, a rating of 100 indicates 100% disease control and a rating of 0 indicates no disease control (relative to the controls). A dash (-) indicates the compound was not tested. The test suspensions were sprayed at the concentration listed in the column “Rate in ppm”, unless otherwise indicated. An asterisk “*” next to the rating indicates a 250 ppm test suspension was used, a double asterisk “**” next to the rating indicates a 100 ppm test suspension was used, and a triple asterisk “***” next to the rating indicates a 50 ppm test suspension was used.

[2] = test system: Puccinia recondita f. sp. tritici (the causal agent of wheat leaf rust); assay: Test C: preventive spray on wheat seedlings, wheat leaf rust, visual disease rating; settings: wheat seedlings
In short: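 Wheat seedlings sprayed to run-off with compound in acetone/water (50/50) with 250 ppm PEG400, then inoculated with spores the following day. After 24 h saturated humidity at 20° C. and 6 days in growth chamber at 20° C., disease rated visually as % control relative to untreated controls.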

[3] = test system: Phakopsora pachyrhizi (the causal agent of Asian soybean rust); assay: Test A: preventive spray on soybean seedlings, Asian soybean rust, visual disease rating; settings: soybean seedlings
In short: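 Preventive test: soybean seedlings received a run-off spray of compound suspended at the set ppm in 50/50 acetone/water plus 250 ppm PEG400, and one day later a P. pachyrhizi spore inoculum. Visual scoring (0 none to 100 full disease control) followed 24 h saturated incubation and 8 days' growth chamber, both at 22° C.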

[4] = Zymoseptoria tritici, 456 h, test suspension 250 ppm
[5] = Puccinia recondita, 168 h, test suspension 250 ppm
[6] = Phakopsora pachyrhizi, 216 h, test suspension 250 ppm
[7] = test suspension 10 ppm, 100 = 100% disease control, 0 = no control
[8] = Zymoseptoria tritici, 456 h, 250 ppm test suspension, 100 = 100% disease control
[9] = Puccinia recondita, 168 h, 10 ppm test suspension, 100 = 100% disease control, 0 = no control
[10] = Phakopsora pachyrhizi, 216 h, 10 ppm test suspension, 100 = 100% disease control, 0 = no control
[11] = 250 ppm test suspension, 100 = 100% disease control
[12] = 10 ppm test suspension, 100 = 100% disease control, 0 = no control

CCOC(=O)c1cnn(Cc2ccc(-c3noc(C(F)(F)F)n3)cc2)c1 [Compound 83, ethyl 1-[[4-[5-(trifluoromethyl)-1,2,4-oxadiazol-3-yl]phenyl]methyl]-1H-pyrazole-4-carboxylate]
pest or weed control at 250 µg/mL [1, 4]: 79% | pest or weed control at 250 µg/mL [2, 5]: 100% | pest or weed control at 250 µg/mL [3, 6]: 100%

FC(F)(F)c1nc(-c2ccc(Cn3ccc(-c4ccccc4)n3)cc2)no1 [Compound 85]
Test B disease control rating ([1]; test suspension 250 ppm): 9% | Test C disease control rating ([2]; test suspension 250 ppm): 100% | Test A disease control rating ([3]; test suspension 50 ppm): 100*** %

O=C1c2ccccc2C(=O)N1Cc1ccc(-c2noc(C(F)(F)F)n2)cc1 [Compound 90, 2-[[4-[5-(trifluoromethyl)-1,2,4-oxadiazol-3-yl]phenyl]methyl]-1H-isoindole-1,3(2H)-dione]
pest or weed control at 250 µg/mL [1, 4]: 33% | pest or weed control at 250 µg/mL [2, 5]: 99% | pest or weed control at 250 µg/mL [3, 6]: 100%

N#Cc1cnn(Cc2ccc(-c3noc(C(F)(F)F)n3)cc2)c1 [Compound 95, 1-[[4-[5-(trifluoromethyl)-1,2,4-oxadiazol-3-yl]phenyl]methyl]-1H-pyrazole-4-carbonitrile]
pest or weed control at 250 µg/mL [1, 4]: 87% | pest or weed control at 250 µg/mL [2, 5]: 100% | pest or weed control at 250 µg/mL [3, 6]: 100%

O=c1cnc2ccccc2n1Cc1ccc(-c2noc(C(F)(F)F)n2)cc1 [Compound 158, 1-[[4-[5-(trifluoromethyl)-1,2,4-oxadiazol-3-yl]phenyl]methyl]-2(1H)-quinoxalinone]
pest or weed control at 270 µg/mL ([1]; Zymoseptoria tritici, 456 h, test suspension 270 ppm): 90% | pest or weed control at 270 µg/mL ([2]; Puccinia recondita, 168 h, test suspension 270 ppm): 100% | pest or weed control at 270 µg/mL ([3]; Phakopsora pachyrhizi, 216 h, test suspension 270 ppm): 100%

Cn1c(=O)n(Cc2ccc(-c3noc(C(F)(F)F)n3)cc2)c2ccccc21 [Compound 159, 1,3-dihydro-1-methyl-3-[[4-[5-(trifluoromethyl)-1,2,4-oxadiazol-3-yl]phenyl]methyl]-2H-benzimidazol-2-one]
pest or weed control at 260 µg/mL ([1]; Zymoseptoria tritici, 456 h, test suspension 260 ppm): 87% | pest or weed control at 260 µg/mL ([2]; Puccinia recondita, 168 h, test suspension 260 ppm): 100% | pest or weed control at 260 µg/mL ([3]; Phakopsora pachyrhizi, 216 h, test suspension 260 ppm): 100%

CCOC(=O)c1cnn(C(C)c2ccc(-c3noc(C(F)(F)F)n3)s2)c1 (stereo not drawn) [Compound 192]
Test B disease control rating ([1]; test suspension 250 ppm): 99* % | Test C disease control rating ([2]; test suspension 10 ppm): 100% | Test A disease control rating [3, 7]: 100%

CCCOC(=O)c1cnn(Cc2ccc(-c3noc(C(F)(F)F)n3)s2)c1 [Compound 198, propyl 1-[[5-[5-(trifluoromethyl)-1,2,4-oxadiazol-3-yl]-2-thienyl]methyl]-1H-pyrazole-4-carboxylate]
pest or weed control at 100 µg/mL ([1]; Zymoseptoria tritici, 456 h, test suspension 100 ppm (** next to rating), read-out: Test B disease control rating): 94% | pest or weed control at 10 µg/mL ([2]; Puccinia recondita, 168 h, test suspension 10 ppm, read-out: Test C disease control rating): 99% | pest or weed control at 10 µg/mL ([3]; Phakopsora pachyrhizi, 216 h, test suspension 10 ppm, 100 = 100% disease control, 0 = no control, read-out: Test A disease control rating): 100%

O=C(c1coc(Cc2ccc(-c3noc(C(F)(F)F)n3)cc2)n1)N1CCOCC1 [Compound 263]
Test B disease control rating ([1]; test suspension 250 ppm): 95* % | Test C disease control rating ([2]; test suspension 10 ppm): 94% | Test A disease control rating [3, 7]: 100%

COCCNC(=O)c1ccc(Cc2ccc(-c3noc(C(F)(F)F)n3)cc2)cc1 [Compound 282]
Test B disease control rating ([1]; test suspension 250 ppm): 94* % | Test C disease control rating ([2]; test suspension 10 ppm): 97% | Test A disease control rating [3, 7]: 100%

FC(F)(F)c1nc(-c2ccc(OCn3cncn3)cc2)no1 [Compound 337]
Test B disease control rating ([1]; test suspension 250 ppm): 78* % | Test C disease control rating ([2]; test suspension 10 ppm): 82% | Test A disease control rating [3, 7]: 99%

FC(F)(F)c1nc(-c2ccc(OCc3cccnc3)cc2)no1 [Compound 353]
Test B disease control rating ([1]; test suspension 250 ppm): 73* % | Test C disease control rating ([2]; test suspension 10 ppm): 0% | Test A disease control rating [3, 7]: 0%

O=C(NCCF)c1coc(Cc2ccc(-c3noc(C(F)(F)F)n3)cc2)n1 [Compound 400, N-(2-fluoroethyl)-2-[[4-[5-(trifluoromethyl)-1,2,4-oxadiazol-3-yl]phenyl]methyl]-4-oxazolecarboxamide]
pest or weed control at 250 ppm [1, 8]: 99% | pest or weed control at 10 ppm [2, 9]: 100% | pest or weed control at 10 ppm [3, 10]: 100%

O=C(NCCOC(F)(F)F)c1coc(Cc2ccc(-c3noc(C(F)(F)F)n3)cc2)n1 [Compound 401, N-[2-(trifluoromethoxy)ethyl]-2-[[4-[5-(trifluoromethyl)-1,2,4-oxadiazol-3-yl]phenyl]methyl]-4-oxazolecarboxamide]
pest or weed control at 250 ppm [1, 8]: 77% | pest or weed control at 10 ppm [2, 9]: 99% | pest or weed control at 10 ppm [3, 10]: 100%

O=C(c1coc(Cc2ccc(-c3noc(C(F)(F)F)n3)cc2)n1)N1CCC(F)(F)C1 [Compound 402, (3,3-difluoro-1-pyrrolidinyl)[2-[[4-[5-(trifluoromethyl)-1,2,4-oxadiazol-3-yl]phenyl]methyl]-4-oxazolyl]methanone]
pest or weed control at 250 ppm [1, 8]: 96% | pest or weed control at 10 ppm [2, 9]: 90% | pest or weed control at 10 ppm [3, 10]: 100%

COC(=O)c1coc(COc2ccc(-c3noc(C(F)(F)F)n3)cc2)n1 [Compound 403, methyl 2-[[4-[5-(trifluoromethyl)-1,2,4-oxadiazol-3-yl]¬phenoxy]¬methyl]oxazole-4-carboxylate]
Test B disease control rating [1, 11]: 47* % | Test C disease control rating [2, 12]: 0% | Test A disease control rating [3, 12]: 60%

CCOC(=O)c1cccc(Cc2ccc(-c3noc(C(F)(F)F)n3)cc2)c1 [Compound 454]
Test B disease control rating [1, 11]: 47* % | Test C disease control rating [2, 12]: 0% | Test A disease control rating [3, 12]: 100%

COC(=O)c1csc(Cc2ccc(-c3noc(C(F)(F)F)n3)cc2)c1 [Compound 455]
Test B disease control rating [1, 11]: 66* % | Test C disease control rating [2, 12]: 0% | Test A disease control rating [3, 12]: 100%

O=C(NCC(F)(F)F)c1csc(Cc2ccc(-c3noc(C(F)(F)F)n3)cc2)n1 [Compound 463, N-(2,2,2-trifluoroethyl)-2-[[4-[5-(trifluoromethyl)-1,2,4-oxadiazol-3-yl]phenyl]methyl]-4-thiazolecarboxamide]
pest or weed control at 250 ppm [1, 8]: 65% | pest or weed control at 10 ppm [2, 9]: 100% | pest or weed control at 10 ppm [3, 10]: 100%

COC(=O)c1coc(Cc2ccc(-c3noc(C(F)(F)F)n3)cc2)n1 [Compound 490]
Test B disease control rating [1, 11]: 94* % | Test C disease control rating [2, 12]: 74% | Test A disease control rating [3, 12]: 100%

Cc1ccccc1C(O)c1ccc(-c2noc(C(F)(F)F)n2)cc1 (stereo not drawn) [Compound 497]
Test B disease control rating [1, 11]: 5* % | Test C disease control rating [2, 12]: 0% | Test A disease control rating [3, 12]: 100%

CN(C)N=Cc1cnn(Cc2ccc(-c3noc(C(F)(F)F)n3)cc2)c1 [compound 19]
Test B disease control rating ([1]; test suspension 250 ppm): 100% | Test C disease control rating ([2]; test suspension 250 ppm): 100% | Test A disease control rating ([3]; test suspension 250 ppm): 100%

CON=Cc1cnn(Cc2ccc(-c3noc(C(F)(F)F)n3)cc2)c1 [compound 25]
Test B disease control rating ([1]; test suspension 250 ppm): 86* % | Test C disease control rating ([2]; test suspension 250 ppm): 100% | Test A disease control rating ([3]; test suspension 250 ppm): 100%

O=C(O)CON=Cc1cnn(Cc2ccc(-c3noc(C(F)(F)F)n3)cc2)c1 [compound 26]
Test B disease control rating ([1]; test suspension 250 ppm): 46* % | Test C disease control rating ([2]; test suspension 250 ppm): 100% | Test A disease control rating ([3]; test suspension 250 ppm): 100%
